Data reported in patent US9187431B2, “Substituted phenyl(oxy/thio)alkanol derivatives” (Bayer Intellectual Property GMBH, priority 2009, dated 2015).

Key:
[1] = assay type: physicochemical; conditions: pH 2.7
Experimental: The log P values were measured according to EEC directive 79/831 Annex V.A8 by HPLC (High Performance Liquid Chromatography) on reversed-phase columns (C 18), using the methods below: [α] The LC-MS determination in the acidic range is carried out at pH 2.7 using the mobile phases 0.1% aqueous formic acid and acetonitrile (contains 0.1% formic acid), linear gradient from 10% acetonitrile to 95% acetonitrile

[2] = tested on: Brassica napus (rape); experiment: Phytoregulatory pre-emergence action, BRSNW; assay type: in vivo; conditions: 320 g of a.i./ha, visual assessment after approx. 3 weeks
Experimental: (§1) Phytoregulatory Pre-Emergence Action Seeds of monocotyledonous or dicotyledonous crop plants are placed in wood-fibre pots in sandy loam and covered with soil. […] After the treatment, the pots are placed in a greenhouse and kept under good growth conditions for the test plants. The visual assessment of the suppression of growth in the test plants is carried out after a trial period of approx. 3 weeks by comparison with untreated controls (phytoregulatory activity in percent: 100% activity=maximum inhibition of plant growth, 0% activity=plant growth like that of an untreated control.)

[3] = tested on: Viola tricolor (wild pansy); experiment: Phytoregulatory pre-emergence action, VIOTR; assay type: in vivo; conditions: 320 g of a.i./ha, visual assessment after approx. 3 weeks
Experimental: as §1

[4] = tested on: Setaria viridis (green foxtail); experiment: Phytoregulatory pre-emergence action, SETVI; assay type: in vivo; conditions: 320 g of a.i./ha, visual assessment after approx. 3 weeks
Experimental: as §1

[5] = tested on: Abuthilon theophrasti (velvetleaf); experiment: Phytoregulatory pre-emergence action, ABUTH; assay type: in vivo; conditions: 320 g of a.i./ha, visual assessment after approx. 3 weeks
Experimental: as §1

[6] = tested on: Triticum aestivum (common wheat); experiment: Phytoregulatory pre-emergence action, TRZAS; assay type: in vivo; conditions: 320 g of a.i./ha, visual assessment after approx. 3 weeks
Experimental: as §1

[7] = tested on: Fusarium proliferatum; experiment: microbe, parasite or virus in culture; assay type: cell-based; conditions: 120 h, read-out: inhibition of fumonisin FB1 production
[8] = tested on: Fusarium graminearum; experiment: microbe, parasite or virus in culture; assay type: cell-based; conditions: 168 h, read-out: inhibition of DON/AcDON production
[9] = tested on: Phakopsora pachyrhizi; experiment: Phakopsora test (soya bean)/protective; assay type: in vivo, Phakopsora pachyrhizi on soya bean; conditions: 250 ppm, protective, evaluation 11 days after inoculation
[10] = tested on: Rhizoctonia solani; experiment: Rhizoctonia test (rice)/protective; assay type: in vivo, Rhizoctonia solani on rice; conditions: 500 ppm active compound, protective, evaluation 4 days after inoculation
Experimental: Rhizoctonia Test (Rice)/Protective [table] To produce a suitable preparation of active compound, 1 part by weight of active compound is mixed with the stated amount of solvent, and the concentrate is diluted with water and the stated amount of emulsifier to the desired concentration. To test for protective activity, young rice plants are sprayed with the preparation of active compound at the stated application rate. 1 day after the treatment, the plants are inoculated with hyphae of Rhizoctonia solani. The plants are then placed in a greenhouse at a relative atmospheric humidity of 100% and a temperature of 25° C.

[11] = tested on: Cochliobolus miyabeanus; experiment: Cochliobolus test (rice)/protective; assay type: in vivo, Cochliobolus miyabeanus on rice; conditions: 500 ppm active compound, protective, evaluation 7 days after inoculation
[12] = tested on: Pyricularia oryzae; assay type: in vivo, Pyricularia oryzae on rice; conditions: 500 ppm active compound, protective, rice, evaluation 7 days after inoculation

| SMILES | logP [1] | further results |
| --- | --- | --- |
| CC(C)(C)C(O)(COc1ccc(Br)c(F)c1)Cn1cncn1 (stereo not drawn) [Compound 30] | logP 3.13 ^[a], [M]^+ = 374/376 | – |
| CC(C)(C)C(O)(COc1ccc(Cl)cc1Cl)c1cncnc1 (stereo not drawn) [EP-A 0 028 755, Example 5, reference compound] | – | Inhibition of the growth of useful or harmful plants in %, BRSNW [2]: 60%; Inhibition of the growth of useful or harmful plants in %, VIOTR [3]: 90%; Inhibition of the growth of useful or harmful plants in %, SETVI [4]: 80%; Inhibition of the growth of useful or harmful plants in %, ABUTH [5]: 40%; Inhibition of the growth of useful or harmful plants in %, TRZAS [6]: 40% |
| Cc1cc(OCC(O)(Cn2cncn2)C(C)(C)C)ccc1Br (stereo not drawn) [Compound 19] | logP 3.41 ^[a], [M]^+ = 370/372 | – |
| Cc1cc(OCC(O)(Cn2cncn2)C(C)(C)C)c(C)cc1I (stereo not drawn) [Compound 36] | logP 4.15 ^[a], [M]^+ = 430/432 | – |
| CC(C)(C)C(O)(COc1c(Cl)cc(Br)cc1Cl)Cn1cncn1 (stereo not drawn) [Compound 21] | logP 4.04 ^[a], [M]^+ = 423.9/426 | – |
| Cc1cc(Br)cc(Cl)c1OCC(O)(Cn1cncn1)C(C)(C)C (stereo not drawn) [Compound 25] | logP 3.99 ^[a], [M]^+ = 403.9/407 | – |
| COc1cc(OCC(O)(Cn2cncn2)C(C)(C)C)ccc1Br (stereo not drawn) [Compound 27] | logP 2.92 ^[a], [M]^+ = 386/388 | – |
| CC(C)(C)C(O)(COc1cc(F)c(Br)cc1F)Cn1cncn1 (stereo not drawn) [Compound 29] | logP 3.21 ^[a], [M]^+ = 392/394 | – |
| CC(C)(C)C(O)(COc1ccc(Br)c(F)c1F)Cn1cncn1 (stereo not drawn) [Compound 34] | logP 3.29 ^[a], [M]^+ = 392/394 | – |
| Cc1cc(Br)cc(Cl)c1OCC(O)(Cn1cncn1)C1(C)CC1 (stereo not drawn) [Compound 40] | logP 3.68 ^[a], [M]^+ = 402/405 | – |
| CC1(C(O)(COc2ccc(Br)c(F)c2F)Cn2cncn2)CC1 (stereo not drawn) [Compound 44] | logP 2.95 ^[a], [M]^+ = 390/391 | – |
| CC(C)(C)C(O)(COc1c(F)cc(Br)cc1F)Cn1cncn1 (stereo not drawn) [Compound 31] | logP 3.37 ^[a], [M]^+ = 392/394 | – |
| Cc1cc(Br)ccc1OCC(O)(Cn1cncn1)C(C)(C)C (stereo not drawn) [Compound 22] | logP 3.5 ^[a], [M]^+ = 370/372 | – |
| Cc1cc(I)ccc1OCC(O)(Cn1cncn1)C1(C)CC1 (stereo not drawn) [Compound 47] | logP 3.37 ^[a], [M]^+ = 414/416 | – |
| Cc1cc(I)cc(C)c1OCC(O)(Cn1cncn1)C(C)(C)C (stereo not drawn) [Compound 38] | logP 4.04 ^[a], [M]^+ = 430/432 | – |
| CC(C)(C)C(O)(COc1ccc(Br)c(F)c1F)c1cncnc1 (stereo not drawn) [Compound 13] | – | inhibition at 50 µM [7]: > 80%; inhibition at 50 µM [8]: > 80% |
| CC(C)(C)C(O)(COc1c(F)cc(Br)cc1Cl)Cn1cncn1 (stereo not drawn) [Compound 28] | logP 3.76 ^[a], [M]^+ =407.9/411 | – |

| SMILES | logP [1] | further results |
| --- | --- | --- |
| CC(C)(C)C(O)(COc1ccc(Br)c(OC(F)(F)F)c1)Cn1cncn1 (stereo not drawn) [Compound 35] | logP 3.72^[a], [M]^+ = 440/441 | – |
| Cc1cc(OCC(O)(Cn2cncn2)C(C)(C)C)cc(C)c1I (stereo not drawn) [Compound 37] | logP 4.04 ^[a], [M]^+ = 430/432 | – |
| Cc1cc(OCC(O)(Cn2cncn2)C2(C)CC2)c(C)cc1I (stereo not drawn) [Compound 45] | logP 3.76 ^[a], [M]^+ = 428/430 | – |
| CC1(C(O)(COc2ccc(Br)cc2Cl)Cn2cncn2)CC1 (stereo not drawn) [Compound 41] | logP 3.22 ^[a], [M]^+ = 388/391 | – |
| CC(C)(C)C(O)(COc1ccc(Br)c(C(F)(F)F)c1)Cn1cncn1 (stereo not drawn) [Compound 32] | logP 3.59 ^[a], [M]^+ = 424/426 | – |
| Cc1cc(OCC(O)(Cn2cncn2)C2(C)CC2)cc(C)c1Br (stereo not drawn) [Compound 39] | logP 3.5 ^[a], [M]^+ = 382/384 | – |
| Cc1cc(OCC(O)(Cn2cncn2)C2(C)CC2)cc(C)c1I (stereo not drawn) [Compound 46] | logP 3.68 ^[a], [M]^+ = 428/430 | – |
| CC1(C(O)(COc2cc(F)c(Br)c(F)c2)Cn2cncn2)CC1 (stereo not drawn) [Compound 43] | logP 2.95 ^[a], [M]^+ = 390/391 | – |
| CC(C)(C)C(O)(COc1ccc(Br)cc1Cl)Cn1cncn1 (stereo not drawn) [Compound 26] | logP 3.59 ^[a], [M]^+ = 389.9/393 | – |
| Cc1cc(OCC(O)(Cn2cncn2)C(C)(C)C)cc(C)c1Br (stereo not drawn) [Compound 23] | logP 3.85 ^[a], [M]^+ = 384/386 | – |
| CC(C)(C)C(O)(COc1cc(F)c(Br)c(F)c1)Cn1cncn1 (stereo not drawn) [Compound 33] | logP 3.25 ^[a], [M]^+ = 392/394 | – |
| COc1cc(OCC(O)(Cn2cncn2)C2(C)CC2)ccc1Br (stereo not drawn) [Compound 42] | logP 2.67 ^[a], [M]^+ = 384/386 | – |
| Cc1cc(Br)cc(C)c1OCC(O)(Cn1cncn1)C(C)(C)C (stereo not drawn) [Compound 24] | logP 3.85 ^[a], [M]^+ = 384/386 | – |
| CC(C)(C)C(O)(COc1ccc(Br)cc1F)Cn1cncn1 (stereo not drawn) [Compound 8] | – | efficacy [9]: ≥ 80% |
| COc1cc(Br)ccc1OCC(O)(Cn1cncn1)C(C)(C)C (stereo not drawn) [Compound 20] | logP 3.09 ^[a], [M]^+ = 386/388 | – |
| Cc1cc(Br)ccc1OCC(O)(c1cncnc1)C(C)(C)C (stereo not drawn) [Compound 12] | – | efficacy [10]: ≥ 80%; Inhibition of the growth of useful or harmful plants in %, BRSNW [2]: 60%; Inhibition of the growth of useful or harmful plants in %, VIOTR [3]: 90%; Inhibition of the growth of useful or harmful plants in %, SETVI [4]: 90%; inhibition at 50 µM [7]: > 80%; efficacy [11]: ≥ 80%; efficacy [12]: ≥ 80%; Inhibition of the growth of useful or harmful plants in %, ABUTH [5]: 80%; inhibition at 50 µM [8]: > 80%; Inhibition of the growth of useful or harmful plants in %, TRZAS [6]: 50% |
| Cc1cc(OCC(O)(Cn2cncn2)C2(C)CC2)ccc1Br (stereo not drawn) [Compound 48] | logP 3.1 ^[a], [M]^+ = 368/369 | – |
